Measurements: patent US8198267B2, “Substituted oxazolidinones and their use” (Bayer Intellectual Property GmbH, priority 2007, dated 2012)

Legend:
factor Xa = biological target: T1, factor Xa (Homo sapiens, UniProt P00742); experiment: Factor Xa-inhibitory activity of the potential inhibitors in plasma samples; assay type: biochemical; conditions: citrate plasma (Octapharma); factor X activated by rattlesnake toxin (RVV); ChromozymX chromogenic substrate, 405 nm
T1 construct: tissue Octapharma; host or cells: citrate plasma
Method: a.4) Determination of the Factor Xa-Inhibitory Activity of the Potential Inhibitors in Plasma Samples
To determine the inhibition of factor Xa in plasma samples, the factor X present in plasma is activated by a protease from rattlesnake toxin. The factor Xa activity or its inhibition by potential inhibitors is then measured by addition of a chromogenic substrate.
Various concentrations of the substances to be tested are dissolved in dimethyl sulfoxide and diluted with an aqueous refludan solution (10 μg/ml). In clear 96-well plates having a flat bottom, 30 μl of citrate plasma (Octapharma) are mixed with 10 μl of the substance dilution. Then, either 20 μl of a solution of a rattlesnake toxin (Russel viper venom (RVV); RVV reagent: Pentapharm 121-06, final concentration 0.6 mU) in an aqueous calcium chloride solution buffer (final concentration of calcium chloride 0.05 M) or 20 μl of the aqueous calcium chloride solution (final concentration of calcium chloride 0.05 M) without RVV reagent (as reference for an unstimulated sample) are added. After addition of 20 μl of ChromozymX substrate (final concentration 1.6 mmol/l, Bachem L-1565, diluted in water) the samples are measured in a SpectraFluor Reader using a measurement filter of 405 nm each minute over a period of 20 minutes. The IC50 value is determined when about 70% of the maximum signal is reached (about 12 min).

thrombin = thrombin (Homo sapiens, UniProt P00734); experiment: Thrombin-inhibitory activity of the potential inhibitors in plasma samples; assay type: biochemical; conditions: citrate plasma (Octapharma); ecarin stimulation; fluorogenic thrombin substrate, 360/465 nm
Method: a.5) Determination of the Thrombin-Inhibitory Activity of the Potential Inhibitors in Plasma Samples
Various concentrations of the substances to be tested are dissolved in dimethyl sulfoxide and diluted with water.

T1 sequence (P00742 235-488 limits assumed): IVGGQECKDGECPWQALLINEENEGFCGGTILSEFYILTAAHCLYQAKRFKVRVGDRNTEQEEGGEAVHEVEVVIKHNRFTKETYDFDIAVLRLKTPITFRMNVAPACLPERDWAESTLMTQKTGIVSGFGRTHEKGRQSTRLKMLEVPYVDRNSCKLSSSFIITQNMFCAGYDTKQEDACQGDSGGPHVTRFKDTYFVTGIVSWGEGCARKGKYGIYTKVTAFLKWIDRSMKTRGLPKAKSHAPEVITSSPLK
T1 sequence (P00742 41-179 limits assumed): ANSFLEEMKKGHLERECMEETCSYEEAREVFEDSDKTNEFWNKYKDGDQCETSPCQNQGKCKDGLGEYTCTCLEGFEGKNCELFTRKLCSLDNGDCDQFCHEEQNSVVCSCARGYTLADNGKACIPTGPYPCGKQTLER

Row | Structure (SMILES) | IC50 (thrombin) [nM] | IC50 (factor Xa) [nM]
1 | CCOc1cccn(-c2ccc(N3C[C@H](CNC(=O)c4ccc(Cl)s4)OC3=O)cc2C)c1=O [Example 4, 5-Chloro-N-({(5S)-3-[4-(3-ethoxy-2-oxopyridin-1(2H)-yl)-3-methylphenyl]-2-oxo-1,3-oxazolidin-5-yl}methyl)thiophene-2-carboxamide] | 286 | 201
2 | O=C(NC[C@H]1CN(c2ccc(N3CCCN(CCO)C3=O)c(C(F)(F)F)c2)C(=O)O1)c1ccc(Cl)s1 [Example 38, 5-Chloro-N-{[(5S)-3-{4-[3-(2-hydroxyethyl)-2-oxotetrahydropyrimidin-1(2H)-yl]-3-(trifluoro-methyl)phenyl}-2-oxo-1,3-oxazolidin-5-yl]methyl}thiophene-2-carboxamide] | – | 252
3 | CCOc1nccn(-c2ccc(N3C[C@H](CNC(=O)c4ccc(Cl)s4)OC3=O)cc2C)c1=O [Example 18, 5-Chloro-N-({(5S)-3-[4-(3-ethoxy-2-oxopyrazin-1(2H)-yl)-3-methylphenyl]-2-oxo-1,3-oxazolidin-5-yl}methyl)thiophene-2-carboxamide] | 502 | 319
4 | Cc1cc(N2C[C@H](CNC(=O)c3ccc(Cl)s3)OC2=O)ccc1-n1cccc(OCC(C)(C)O)c1=O [Example 9, 5-Chloro-N-[((5S)-3-{4-[3-(2-hydroxy-2-methylpropoxy)-2-oxopyridin-1(2H)-yl]-3-methylphenyl}-2-oxo-1,3-oxazolidin-5-yl)methyl]thiophene-2-carboxamide] | 247 | 149
5 | COc1cc(N2C[C@H](CNC(=O)c3ccc(Cl)s3)OC2=O)ccc1N1CCCN(C)C1=O [Example 35, 5-Chloro-N-({(5S)-3-[3-methoxy-4-(3-methyl-2-oxotetrahydropyrimidin-1(2H)-yl)phenyl]-2-oxo-1,3-oxazolidin-5-yl}methyl)thiophene-2-carboxamide] | 390 | 552
6 | CC(=O)COc1cccn(-c2ccc(N3C[C@H](CNC(=O)c4ccc(Cl)s4)OC3=O)cc2C)c1=O [Example 7, 5-Chloro-N-[((5S)-3-{3-methyl-4-[2-oxo-3-(2-oxopropoxy)pyridin-1(2H)-yl]phenyl}-2-oxo-1,3-oxazolidin-5-yl)methyl]thiophene-2-carboxamide] | 277 | 206

Now from value to compound, other results behind:

Row | IC50 (thrombin) [nM] | Structure (SMILES) | IC50 (factor Xa) [nM]
7 | 8 | CCCc1cc(N2C[C@H](CNC(=O)c3ccc(Cl)s3)OC2=O)ccc1-n1ccccc1=O [Example 19] | 361
8 | 14 | Cc1cc(N2C[C@H](CNC(=O)c3ccc(Cl)s3)OC2=O)cc(C)c1-n1cccc(OCCO)c1=O [Example 16, 5-Chloro-N-{[(5S)-3-{4-[3-(2-hydroxyethoxy)-2-oxopyridin-1(2H)-yl]-3,5-dimethylphenyl}-2-oxo-1,3-oxazolidin-5-yl]methyl}thiophene-2-carboxamide] | 213
9 | 54 | COCc1cc(N2C[C@H](CNC(=O)c3ccc(Cl)s3)OC2=O)ccc1N1CCCCC1=O [Example 27, 5-Chloro-N-({(5S)-3-[3-(methoxymethyl)-4-(2-oxopiperidin-1-yl)phenyl]-2-oxo-1,3-oxazolidin-5-yl}methyl)thiophene-2-carboxamide] | 39
10 | 34 | O=C(NC[C@H]1CN(c2ccc(N3CCOCCC3=O)c(C3CC3)c2)C(=O)O1)c1ccc(Cl)s1 [Example 30, 5-Chloro-N-({(5S)-3-[3-cyclopropyl-4-(5-oxo-1,4-oxazepan-4-yl)phenyl]-2-oxo-1,3-oxazolidin-5-yl}methyl)thiophene-2-carboxamide] | 25
11 | 151 | CC(C)c1cc(N2C[C@H](CNC(=O)c3ccc(Cl)s3)OC2=O)ccc1N1CCCNC1=O [Example 32, 5-Chloro-N-({(5S)-3-[3-isopropyl-4-(2-oxotetrahydropyrimidin-1(2H)-yl)phenyl]-2-oxo-1,3-oxazolidin-5-yl}methyl)thiophene-2-carboxamide] | 70
